The target in this experiment is T1, enzyme ACAT-1 (Homo sapiens, UniProt P35610).
T1 construct: endogenous in cells; host or cells: HepG2
T1 sequence (P35610 1-550): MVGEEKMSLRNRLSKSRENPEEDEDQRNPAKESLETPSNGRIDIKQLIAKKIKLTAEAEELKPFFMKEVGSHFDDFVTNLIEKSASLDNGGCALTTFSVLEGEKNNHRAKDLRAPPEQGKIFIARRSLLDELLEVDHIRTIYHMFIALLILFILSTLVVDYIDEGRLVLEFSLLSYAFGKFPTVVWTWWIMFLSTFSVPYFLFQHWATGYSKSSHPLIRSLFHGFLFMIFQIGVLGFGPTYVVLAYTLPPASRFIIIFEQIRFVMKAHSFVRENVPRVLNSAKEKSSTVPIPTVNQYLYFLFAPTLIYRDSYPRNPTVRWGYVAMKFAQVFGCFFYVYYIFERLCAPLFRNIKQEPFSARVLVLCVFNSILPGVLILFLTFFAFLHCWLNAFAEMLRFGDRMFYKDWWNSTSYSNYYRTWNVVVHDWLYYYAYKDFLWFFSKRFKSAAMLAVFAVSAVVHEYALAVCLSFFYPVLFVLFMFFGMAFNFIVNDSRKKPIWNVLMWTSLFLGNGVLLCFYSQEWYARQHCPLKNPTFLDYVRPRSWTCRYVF
In words: HepG2 NBD-cholesterol fluorescence test for inhibitory activity towards the enzyme ACAT-1 (SOAT-1). The format is cell-based. Conditions: HepG2 cells, NBD-cholesterol 1 μg/ml, incubation 6 hours at 37° C., fluorescence read (excitation 490 nm, emission 540 nm). As for the experimental part: The compounds (I) according to the invention, and also the pharmaceutically acceptable salts, solvates and/or hydrates thereof, have inhibitory properties on the enzyme SOAT-1. This inhibitory activity on the enzyme SOAT-1 is measured according to a HepG2 primary […] test, as described in Example 7.
The compounds of formula (I) according to the invention were subjected to a test for evaluating their inhibitory activity towards the enzyme ACAT-1, inspired by the following publication: “Identification of ACAT1- and ACAT2-specific inhibitors using a novel, cell based fluorescence assay: individual ACAT uniqueness”, J. Lipid. Res. (2004) vol. 45, pages 378-386.
The principle of this test is based on the use of NBD-cholesterol, a cholesterol analogue whose fluorescence depends on its environment. When this molecule is in a polar environment, it is weakly fluorescent, whereas in a non-polar environment it is strongly fluorescent. Free NBD-cholesterol becomes inserted in cell membranes and is weakly fluorescent in this polar environment. When NBD-cholesterol is esterified with ACAT, the NBD-cholesterol ester enters non-polar lipid droplets and is then strongly fluorescent.
The method below is applied: HepG2 cells are incubated in the presence of NBD-cholesterol (1 μg/ml) and of the test compound of formula (I) in black transparent-bottomed 96-well plates, at a rate of 30 000 cells per well. After incubation for 6 hours at 37° C. under 5% CO2, the medium is removed by turning upside-down and the cells are washed with twice 100 μl of PBS. After addition of 50 μl of lysis buffer (10 mM NaPO4, 1% Igepal), the plates are shaken for 5 minutes and the fluorescence is read (excitation at 490 nm, emission at 540 nm) on a Fusion machine (Perkin-Elmer).
Usually IC50 stands for the concentration needed to halve the response being measured. A lower IC50 goes with greater potency in that assay. Regarding `CCOC(=O)c1ccc(N2C(=O)N(CC(=O)Nc3c(C(C)C)cccc3C(C)C)C(=O)C23CCCCC3)cc1` [Compound 1, 4-{3-[(2,6-Diisopropylphenylcarbamoyl)-methyl]-2,4-dioxo-1,3-diazaspiro[4.5]dec-1-yl}benzoic acid ethyl ester], the midpoint of inhibition, the IC50, lay at 2.4 nM. This counts as single-digit nanomolar. With `Cc1ccc(N2C(=O)N(CC(=O)Nc3c(C(C)C)cccc3C(C)C)C(=O)C23CCCCC3)cc1C#N` [Compound 3, 2-[1-(3-cyano-4-methylphenyl)-2,4-dioxo-1,3-diaza-spiro[4.5]dec-3-yl]-N-(2,6-diisopropylphenyl)acetamide] the figure was 2.5 nM; with `CC(C)c1cccc(C(C)C)c1NC(=O)CN1C(=O)N(c2ccc(S(C)(=O)=O)cc2)C2(CCCCC2)C1=O` [Compound 5, N-(2,6-Diisopropylphenyl)-2-[1-(4-methanesulfonylphenyl)-2,4-dioxo-1,3-diaza-spiro[4.5]dec-3-yl]acetamide], 31 nM; with `CSc1ccc(N2C(=O)N(CC(=O)Nc3c(C(C)C)cccc3C(C)C)C(=O)C23CCCCC3)cc1` [Compound 4, N-(2,6-diisopropylphenyl)-2-[1-(4-methylsulfanyl-phenyl)-2,4-dioxo-1,3-diazaspiro[4.5]dec-3-yl]acetamide], 1.5 nM. In the case of `CC(C)c1cccc(C(C)C)c1NC(=O)CN1C(=O)N(c2ccc(C#N)cc2)C2(CCCCC2)C1=O` [Compound 2, 2-[1-(4-Cyanophenyl)-2,4-dioxo-1,3-diaza-spiro[4.5]dec-3-yl]-N-(2,6-diisopropylphenyl)acetamide] it was 77 nM.

These data come from patent US8420682B2, “N-phenylacetamide derivatives, which inhibit the enzyme SOAT-1, and pharmaceutical and cosmetic compositions containing them” (Galderma Research & Development, priority 2009, dated 2013).
